Laboratory results from US20240182445A1 (ONO PHARMACEUTICAL CO., LTD., priority 2019, published 2024).

Molecular target: T1, human TREK-1 (Homo sapiens, UniProt O95069)
T1 construct: expressed in transfected cells
T1 sequence (O95069 1-426): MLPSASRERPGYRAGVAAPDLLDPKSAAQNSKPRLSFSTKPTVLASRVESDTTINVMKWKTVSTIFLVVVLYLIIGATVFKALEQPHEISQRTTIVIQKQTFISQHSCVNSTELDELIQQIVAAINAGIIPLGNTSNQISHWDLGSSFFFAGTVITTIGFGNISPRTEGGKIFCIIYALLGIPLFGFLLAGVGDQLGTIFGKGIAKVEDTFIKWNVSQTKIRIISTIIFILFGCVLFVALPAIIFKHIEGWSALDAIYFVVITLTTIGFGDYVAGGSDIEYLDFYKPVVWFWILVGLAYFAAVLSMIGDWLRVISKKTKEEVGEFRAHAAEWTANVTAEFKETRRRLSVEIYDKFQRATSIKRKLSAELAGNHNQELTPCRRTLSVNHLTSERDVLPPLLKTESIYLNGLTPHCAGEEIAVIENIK
Experiment: TREK-1 Thallium (Tl+) flux assay, Method 1
Assay type: cell-based
Settings: TREK-1 Thallium (Tl+) flux assay
Description: The term “thallium flux assay” herein refers to a fluorescence-based assay used to monitor the activity of TREK channels. Thallium is a congener of potassium that readily fluxes through the pore of TREK channels. Thallium flux is measured using a commercially available, thallium-sensitive fluorescent dye called Thallos. The detail method is described below.
CHO-K1 cells stably expressing human TREK-1 were plated in 384-well plates, cultured overnight, loaded with Thallos dye the following day. Test compounds or control compound (tert-butyl (3-((4-(benzyloxy)-2-methylphenyl)carbamoyl)-4-chlorophenyl)carbamate) or 0.3% DMSO (vehicle control) which were prepared on separate plates were added to the cell plates and incubated for 10 min, and then the cells were treated with thallium stimulus buffer to initiate thallium flux. To measure the efficacy and potency of test compounds, the change in fluorescence intensity (ΔRatio) and % inhibition were calculated using the following equations:
ΔRatio=(fluorescence intensity at 25 seconds after thallium addition)/(average of fluorescent intensity before thallium addition)

[1] = no *^12 (Method 2) mark on these rows
[2] = values without footnote *12 are Method 1

Compound | IC50 [1] [nM] | IC50 [2] [nM]
4-chloro-1-[(2s,4r)-6-(cyclopropanecarbonyl)-6-azaspiro[3.4]octan-2-yl]-N-{5-[(4-fluorophenyl)ethynyl]-3-methylpyridin-2-yl}-1H-pyrazole-5-carboxamide or 4-chloro-1-[(2r,4s)-6-(cyclopropanecarbonyl)-6-azaspiro[3.4]octan-2-yl]-N-{5-[(4-fluorophenyl)ethynyl]-3-methylpyridin-2-yl}-1H-pyrazole-5-carboxamide [Compound 362] | 910 | –
CC(=O)N1CC[C@H](n2ncc(Cl)c2C(=O)Nc2ncc(C#Cc3ccccc3)cc2C)C[C@@H]1C (single isomer, unassigned) [Compound 31, 1-[(2S,4S)-1-acetyl-2-methylpiperidin-4-yl]-4-chloro-N-[3-methyl-5-(phenylethynyl)pyridin-2-yl]-1H-pyrazole-5-carboxamide or 1-[(2R,4R)-1-acetyl-2-methylpiperidin-4-yl]-4-chloro-N-[3-methyl-5-(phenylethynyl)pyridin-2-yl]-1H-pyrazole-5-carboxamide] | – | 100
CC(=O)N1CC[C@@H](n2ncc(Cl)c2C(=O)Nc2ncc(C#Cc3ccccc3)cc2C)C[C@@H]1C (single isomer, unassigned) [Compound 86, 1-[(2S,4R)-1-acetyl-2-methylpiperidin-4-yl]-4-chloro-N-[3-methyl-5-(phenylethynyl)pyridin-2-yl]-1H-pyrazole-5-carboxamide or 1-[(2R,4S)-1-acetyl-2-methylpiperidin-4-yl]-4-chloro-N-[3-methyl-5-(phenylethynyl)pyridin-2-yl]-1H-pyrazole-5-carboxamide] | – | 170
CC(=O)N1CC[C@H](n2ncc(Cl)c2C(=O)Nc2ncc(C#Cc3ccccc3)cc2C)C[C@@H]1C (single isomer, unassigned) [Compound 114, 1-[(2S,4S)-1-acetyl-2-methylpiperidin-4-yl]-4-chloro-N-[3-methyl-5-(phenylethynyl)pyridin-2-yl]-1H-pyrazole-5-carboxamide or 1-[(2R,4R)-1-acetyl-2-methylpiperidin-4-yl]-4-chloro-N-[3-methyl-5-(phenylethynyl)pyridin-2-yl]-1H-pyrazole-5-carboxamide] | – | 200

Now from value to compound:

IC50 [1] [nM] | IC50 [2] [nM] | Compound
430 | – | Cc1cc(C#Cc2ccccc2)cnc1NC(=O)c1c(Cl)cnn1C[C@H]1C[C@@H]2CC[C@H]1O2 (racemic) [Compound 259, 4-chloro-N-[3-methyl-5-(phenylethynyl)pyridin-2-yl]-1-{[(1S,2S,4R)-7-oxabicyclo[2.2.1]heptan-2-yl]methyl}-1H-pyrazole-5-carboxamide and 4-chloro-N-[3-methyl-5-(phenylethynyl)pyridin-2-yl]-1-{[(1R,2R,4S)-7-oxabicyclo[2.2.1]heptan-2-yl]methyl}-1H-pyrazole-5-carboxamide]
620 | – | O=C(Nc1ncc(C#Cc2ccccc2)cc1F)c1c(Cl)cnn1C[C@@H]1C[C@H]2CC[C@@H]1O2 (racemic) [Compound 319, 4-chloro-N-[3-fluoro-5-(phenylethynyl)pyridin-2-yl]-1-{[(1S,2S,4R)-7-oxabicyclo[2.2.1]heptan-2-yl]methyl}-1H-pyrazole-5-carboxamide and 4-chloro-N-[3-fluoro-5-{[(1R,2R,4S)-7-oxabicyclo[2.2.1]heptan-2-yl)methyl}-1H-pyrazole-5-carboxamide]
300 | – | CC(=O)N1CCC(C(C)n2ncc(Cl)c2C(=O)Nc2ncc(C#Cc3ccccc3)cc2C)CC1 (single isomer, unassigned) [Compound 197, 1-[(1R)-1-(1-acetylpiperidin-4-yl)ethyl]-4-chloro-N-[3-methyl-5-(phenylethynyl)pyridin-2-yl]-1H-pyrazole-5-carboxamide or 1-[(1S)-1-(1-acetylpiperidin-4-yl)ethyl]-4-chloro-N-[3-methyl-5-(phenylethynyl)pyridin-2-yl]-1H-pyrazole-5-carboxamide]
